Experimental data published in patent US4028185A, “Method for producing L(+)-tartaric acid” (priority 1975, dated 1977).

Test system: Acinetobacter tartarogenes KB-112
Assay: Effect of nonionic surfactant (0.1 %) on conversion of calcium cis-epoxysuccinate to L(+)-tartaric acid
Format: cell-based
Conditions: 30° C., 2 days; for Mole Yields (%) of L(+)-tartaric acid: cis-epoxysuccinate 40 % as free acid, particle size 60 micron, not added: 34; for Rate of Residues (%) of cis-epoxysuccinic acid: residue of 12 g as free acid = 100 %, not added: 64
Experimental: Acinetobacter tartarogenes KB-112 are used to inoculate 30 ml of culture medium, contained in the Erlenmeyer flask of 200 ml-capacity, which culture medium having been set up into such constitution that, to the basic culture medium which is composed of casamino acid (0.05 %), ammonium nitrate (0.1 %), dipotassium hydrogen phosphate (0.2 %), magnesium sulfate (0.05 %), ferrous sulfate (0.001 %), pH 7.0, various sorts of nonionic surfactants are added so that the respective kinds of surface active agents may come to the concentration of 0.1 %. And simultaneously, the crystals of calcium cis-epoxysuccinate (average particle size: 60 micron) is added, in such way that it may come to the final concentration of 40 % counted as the free acid; and the above mixture is subjected to rotatory shake culture at 30° C., and for 2 days, and thence being allowed to exert reaction effect. After the termination of reaction, and the crystals are collected by filtration and, after addition of sulfuric acid, subjected to centrifugal separator to eliminate the solid substances. Subsequently, the quantitative determinations are made, with respect to L(+)-tartaric acid, by depending upon the optical rotation at 436 mμ; and with respect to the remaining cis-epoxysuccinic acid, by using Payne & Williams Method (G. B. Payne and P. H. Williams: Journal of Organic Chemistry, 24, 54, (1959)).

Row | Molecule | Mole Yields (%) of L(+)-tartaric acid [%] | Rate of Residues (%) of cis-epoxysuccinic acid [%]
1 | Sorbitan monooleate [NIKKOL SR-10] | 45 | 52
2 | CCCCCCCCCCCCCCCCCC(=O)OCC(O)CO (stereo not drawn) [NIKKOL MGS-C, Glyceryl monostearate] | 48 | 47
3 | Propyleneglycol monostearate [NIKKOL PMS-SE] | 46 | 50
